Experimental data as given in ChEMBL document CHEMBL4765227, “Hit to lead optimization of a series of N-[4-(1,3-benzothiazol-2-yl)phenyl]acetamides as monoacylglycerol lipase inhibitors with potential anticancer activity” (Eur J Med Chem, 2016).

What was measured:
Format in all cases: functional
Details in all cases: read-out: GI
CCRF-CEM = assay: Growth inhibition of human CCRF-CEM cells at 10 uM incubated for 48 hrs by sulforhodamine B assay relative to control
K562 = assay: Growth inhibition of human K562 cells at 10 uM incubated for 48 hrs by sulforhodamine B assay relative to control
RPMI-8226 = assay: Growth inhibition of human RPMI-8226 cells at 10 uM incubated for 48 hrs by sulforhodamine B assay relative to control
A549 = assay: Growth inhibition of human A549/ATCC cells at 10 uM incubated for 48 hrs by sulforhodamine B assay relative to control
HOP-92 = assay: Growth inhibition of human HOP-92 cells at 10 uM incubated for 48 hrs by sulforhodamine B assay relative to control
NCI-H226 = assay: Growth inhibition of human NCI-H226 cells at 10 uM incubated for 48 hrs by sulforhodamine B assay relative to control
NCI-H23 = assay: Growth inhibition of human NCI-H23 cells at 10 uM incubated for 48 hrs by sulforhodamine B assay relative to control
NCI-H322M = assay: Growth inhibition of human NCI-H322M cells at 10 uM incubated for 48 hrs by sulforhodamine B assay relative to control
NCI-H460 = assay: Growth inhibition of human NCI-H460 cells at 10 uM incubated for 48 hrs by sulforhodamine B assay relative to control
NCI-H522 = assay: Growth inhibition of human NCI-H522 cells at 10 uM incubated for 48 hrs by sulforhodamine B assay relative to control
COLO 205 = assay: Growth inhibition of human COLO 205 cells at 10 uM incubated for 48 hrs by sulforhodamine B assay relative to control
HCC 2998 = assay: Growth inhibition of human HCC 2998 cells at 10 uM incubated for 48 hrs by sulforhodamine B assay relative to control
HCT-116 = assay: Growth inhibition of human HCT-116 cells at 10 uM incubated for 48 hrs by sulforhodamine B assay relative to control
HCT-15 = assay: Growth inhibition of human HCT-15 cells at 10 uM incubated for 48 hrs by sulforhodamine B assay relative to control
HT-29 = assay: Growth inhibition of human HT-29 cells at 10 uM incubated for 48 hrs by sulforhodamine B assay relative to control
KM12 = assay: Growth inhibition of human KM12 cells at 10 uM incubated for 48 hrs by sulforhodamine B assay relative to control
SW-620 = assay: Growth inhibition of human SW-620 cells at 10 uM incubated for 48 hrs by sulforhodamine B assay relative to control
SF-268 = assay: Growth inhibition of human SF-268 cells at 10 uM incubated for 48 hrs by sulforhodamine B assay relative to control
SNB-19 = assay: Growth inhibition of human SNB-19 cells at 10 uM incubated for 48 hrs by sulforhodamine B assay relative to control
SNB-75 = assay: Growth inhibition of human SNB-75 cells at 10 uM incubated for 48 hrs by sulforhodamine B assay relative to control
LOX IMVI = assay: Growth inhibition of human LOX IMVI cells at 10 uM incubated for 48 hrs by sulforhodamine B assay relative to control
Malme-3M = assay: Growth inhibition of human Malme-3M cells at 10 uM incubated for 48 hrs by sulforhodamine B assay relative to control
M14 = assay: Growth inhibition of human M14 cells at 10 uM incubated for 48 hrs by sulforhodamine B assay relative to control
MDA-MB-435 = assay: Growth inhibition of human MDA-MB-435 cells at 10 uM incubated for 48 hrs by sulforhodamine B assay relative to control
SK-MEL-28 = assay: Growth inhibition of human SK-MEL-28 cells at 10 uM incubated for 48 hrs by sulforhodamine B assay relative to control
SK-MEL-5 = assay: Growth inhibition of human SK-MEL-5 cells at 10 uM incubated for 48 hrs by sulforhodamine B assay relative to control
UACC-257 = assay: Growth inhibition of human UACC-257 cells at 10 uM incubated for 48 hrs by sulforhodamine B assay relative to control
UACC-62 = assay: Growth inhibition of human UACC-62 cells at 10 uM incubated for 48 hrs by sulforhodamine B assay relative to control
IGROV-1 = assay: Growth inhibition of human IGROV-1 cells at 10 uM incubated for 48 hrs by sulforhodamine B assay relative to control
OVCAR-3 = assay: Growth inhibition of human OVCAR-3 cells at 10 uM incubated for 48 hrs by sulforhodamine B assay relative to control
OVCAR-4 = assay: Growth inhibition of human OVCAR-4 cells at 10 uM incubated for 48 hrs by sulforhodamine B assay relative to control
OVCAR-5 = assay: Growth inhibition of human OVCAR-5 cells at 10 uM incubated for 48 hrs by sulforhodamine B assay relative to control
NCI/ADR-RES = assay: Growth inhibition of human NCI/ADR-RES cells at 10 uM incubated for 48 hrs by sulforhodamine B assay relative to control
SK-OV-3 = assay: Growth inhibition of human SK-OV-3 cells at 10 uM incubated for 48 hrs by sulforhodamine B assay relative to control
786-0 = assay: Growth inhibition of human 786-0 cells at 10 uM incubated for 48 hrs by sulforhodamine B assay relative to control
ACHN = assay: Growth inhibition of human ACHN cells at 10 uM incubated for 48 hrs by sulforhodamine B assay relative to control
CAKI-1 = assay: Growth inhibition of human CAKI-1 cells at 10 uM incubated for 48 hrs by sulforhodamine B assay relative to control
RXF 393 = assay: Growth inhibition of human RXF 393 cells at 10 uM incubated for 48 hrs by sulforhodamine B assay relative to control
TK-10 = assay: Growth inhibition of human TK-10 cells at 10 uM incubated for 48 hrs by sulforhodamine B assay relative to control
DU-145 = assay: Growth inhibition of human DU-145 cells at 10 uM incubated for 48 hrs by sulforhodamine B assay relative to control
MCF7 = assay: Growth inhibition of human MCF7 cells at 10 uM incubated for 48 hrs by sulforhodamine B assay relative to control
MDA-MB-231 = assay: Growth inhibition of human MDA-MB-231 cells at 10 uM incubated for 48 hrs by sulforhodamine B assay relative to control
BT-549 = assay: Growth inhibition of human BT-549 cells at 10 uM incubated for 48 hrs by sulforhodamine B assay relative to control
T47D = assay: Growth inhibition of human T47D cells at 10 uM incubated for 48 hrs by sulforhodamine B assay relative to control

## O=C(CNc1c(Cl)cccc1Cl)Nc1ccc(-c2nc3ccccc3s2)cc1
CCRF-CEM
  inhibition of growth at 10 µM: 97.8%
K562
  inhibition of growth at 10 µM: 89.5%
RPMI-8226
  inhibition of growth at 10 µM: 40.2%
A549
  inhibition of growth at 10 µM: 14.3%
HOP-92
  inhibition of growth at 10 µM: 5.78%
NCI-H226
  inhibition of growth at 10 µM: 45.6%
NCI-H23
  inhibition of growth at 10 µM: 59.1%
NCI-H322M
  inhibition of growth at 10 µM: 5.42%
NCI-H460
  inhibition of growth at 10 µM: 8.81%
NCI-H522
  inhibition of growth at 10 µM: 193%
COLO 205
  inhibition of growth at 10 µM: 12.3%
HCC 2998
  inhibition of growth at 10 µM: 64.4%
HCT-116
  inhibition of growth at 10 µM: 70.1%
HCT-15
  inhibition of growth at 10 µM: 97.6%
HT-29
  inhibition of growth at 10 µM: 30.2%
KM12
  inhibition of growth at 10 µM: 8.67%
SW-620
  inhibition of growth at 10 µM: 64.7%
SF-268
  inhibition of growth at 10 µM: 53.8%
SNB-19
  inhibition of growth at 10 µM: 26.1%
SNB-75
  inhibition of growth at 10 µM: 40.8%
LOX IMVI
  inhibition of growth at 10 µM: 149%
Malme-3M
  inhibition of growth at 10 µM: 150%
M14
  inhibition of growth at 10 µM: 44.3%
MDA-MB-435
  inhibition of growth at 10 µM: 32.1%
SK-MEL-28
  inhibition of growth at 10 µM: -3.93%
SK-MEL-5
  inhibition of growth at 10 µM: 78.8%
UACC-257
  inhibition of growth at 10 µM: 3.54%
UACC-62
  inhibition of growth at 10 µM: 64.9%
IGROV-1
  inhibition of growth at 10 µM: 50.7%
OVCAR-3
  inhibition of growth at 10 µM: 45.6%
OVCAR-4
  inhibition of growth at 10 µM: 82.5%
OVCAR-5
  inhibition of growth at 10 µM: -10.4%
NCI/ADR-RES
  inhibition of growth at 10 µM: 36%
SK-OV-3
  inhibition of growth at 10 µM: 2.25%
786-0
  inhibition of growth at 10 µM: 75.9%
ACHN
  inhibition of growth at 10 µM: 57.7%
CAKI-1
  inhibition of growth at 10 µM: 71.2%
RXF 393
  inhibition of growth at 10 µM: 13.4%
TK-10
  inhibition of growth at 10 µM: -6.12%
DU-145
  inhibition of growth at 10 µM: 14.3%
MCF7
  inhibition of growth at 10 µM: 85.4%
MDA-MB-231
  inhibition of growth at 10 µM: 43.1%
BT-549
  inhibition of growth at 10 µM: 78%
T47D
  inhibition of growth at 10 µM: 119%

## Cc1cc(C)n(CC(=O)Nc2ccc(-c3nc4ccccc4s3)cc2)n1
CCRF-CEM
  inhibition of growth at 10 µM: 1.49%
K562
  inhibition of growth at 10 µM: -0.21%
RPMI-8226
  inhibition of growth at 10 µM: 2.85%
A549
  inhibition of growth at 10 µM: 5.29%
HOP-92
  inhibition of growth at 10 µM: 2.31%
NCI-H226
  inhibition of growth at 10 µM: -0.25%
NCI-H23
  inhibition of growth at 10 µM: 6.19%
NCI-H322M
  inhibition of growth at 10 µM: 0.12%
NCI-H460
  inhibition of growth at 10 µM: -2.37%
NCI-H522
  inhibition of growth at 10 µM: -2.77%
COLO 205
  inhibition of growth at 10 µM: -12.4%
HCC 2998
  inhibition of growth at 10 µM: 7.15%
HCT-116
  inhibition of growth at 10 µM: -7.45%
HCT-15
  inhibition of growth at 10 µM: -5.24%
HT-29
  inhibition of growth at 10 µM: -8.3%
KM12
  inhibition of growth at 10 µM: -0.27%
SW-620
  inhibition of growth at 10 µM: -13.1%
SF-268
  inhibition of growth at 10 µM: -0.26%
SNB-19
  inhibition of growth at 10 µM: 0.22%
SNB-75
  inhibition of growth at 10 µM: -0.57%
LOX IMVI
  inhibition of growth at 10 µM: 2.33%
Malme-3M
  inhibition of growth at 10 µM: -7.85%
M14
  inhibition of growth at 10 µM: -11.3%
MDA-MB-435
  inhibition of growth at 10 µM: -7.5%
SK-MEL-28
  inhibition of growth at 10 µM: -8.88%
SK-MEL-5
  inhibition of growth at 10 µM: 3.6%
UACC-257
  inhibition of growth at 10 µM: -7.21%
UACC-62
  inhibition of growth at 10 µM: 4.67%
IGROV-1
  inhibition of growth at 10 µM: 2.57%
OVCAR-3
  inhibition of growth at 10 µM: -1.21%
OVCAR-4
  inhibition of growth at 10 µM: 2.19%
OVCAR-5
  inhibition of growth at 10 µM: -4.65%
NCI/ADR-RES
  inhibition of growth at 10 µM: -2.56%
SK-OV-3
  inhibition of growth at 10 µM: -14%
786-0
  inhibition of growth at 10 µM: -5.8%
ACHN
  inhibition of growth at 10 µM: -14.4%
CAKI-1
  inhibition of growth at 10 µM: -1.54%
RXF 393
  inhibition of growth at 10 µM: -29%
TK-10
  inhibition of growth at 10 µM: -6.36%
DU-145
  inhibition of growth at 10 µM: -2.89%
MCF7
  inhibition of growth at 10 µM: 73.4%
MDA-MB-231
  inhibition of growth at 10 µM: -7.87%
BT-549
  inhibition of growth at 10 µM: -15.3%
T47D
  inhibition of growth at 10 µM: 6.7%
